According to patent US10278396B2, “Synergistic Bacillus thuringiensis subsp. kurstaki and cyantraniliprole mixtures for diamondback moth, beet armyworm, sugarcane borer, and soybean looper control” (priority 2016, dated 2019):
Read-outs that look alike come from different tables or passages of the source.

Legend:
sugarcane borer larvae = assay: leaf dip test, sugarcane borer larvae; type: in vivo; conditions: Diatraea saccharalis, foliar, Btk 0.54 ppm, cyantraniliprole 1.0 ppm, mixture 0.54 ppm + 1.0 ppm, read-out: % Efficacy
Protocol: (§1) For these tests, standardized laboratory leaf dip methods were used to inoculate plant material with treatment(s). Dry, treated leaves were placed into Petri dishes (100×25 mm) containing filter paper wetted with 500 μl of distilled H2O (“dH2O”). Each dish was then infested with between 5 and 10 larvae, dependent on species. Efficacy ratings were taken at specified intervals. Synergy ratings were calculated for each test.
(§2) % Cexp=A+B−(AB/100), where % Cexp is the expected efficacy and “in which A and B are the control levels given by the single [insecticides]. If the ratio between the experimentally observed efficacy of the mixture Cobs and the expected efficacy of the mixture is greater than 1, synergistic interactions are present in the mixture.” (Gisi, Synergisitic Interaction of Fungicides in Mixtures, The American Phytopathological Society, 86:11, 1273-1279, 1996). Adopting a conservative approach, Applicant determined synergy to be present at ratios of ≥1.15.
In this study, the response of sugarcane borer larvae to synergistic amounts of Bacillus thuringiensis subsp. kurstaki and cyantraniliprole was observed.
(§3) Bacillus thuringiensis subsp. kurstaki was applied at a concentration of 0.54 ppm (0.54 μg/ml). Cyantraniliprole was applied at a concentration of 1.0 ppm (1.0 μg/ml). […]

corn earworm larvae = assay: leaf dip test, corn earworm larvae; type: in vivo; conditions: Helicoverpa zea, foliar, Btk 0.54 ppm, cyantraniliprole 10.0 ppm, mixture 0.54 ppm + 10.0 ppm, read-out: % Efficacy
Protocol: as §1, §2
In this study, the response of corn earworm larvae to Bacillus thuringiensis subsp. kurstaki and cyantraniliprole was observed.
Bacillus thuringiensis subsp. kurstaki was applied at a concentration of 0.54 ppm (0.54 μg/ml). Cyantraniliprole was applied at a concentration of 10.0 ppm (10.0 μg/ml). […]

[1] = system: southwestern corn borer larvae; assay: leaf dip test, southwestern corn borer larvae; type: in vivo, Diatraea grandiosella; conditions: foliar, Btk 0.54 ppm, cyantraniliprole 0.1 ppm, mixture 0.54 ppm + 0.1 ppm, read-out: % Efficacy
Protocol: as §1, §2
In this study, the response of southwestern corn borer larvae to Bacillus thuringiensis subsp. kurstaki and cyantraniliprole was observed.
Bacillus thuringiensis subsp. kurstaki was applied at a concentration of 0.54 ppm (0.54 μg/ml). Cyantraniliprole was applied at a concentration of 0.1 ppm (0.1 μg/ml). […]

soybean looper larvae = assay: leaf dip test, soybean looper larvae; type: in vivo, Chrysodeixis includens; conditions: foliar, Btk 0.54 ppm, cyantraniliprole 1.0 ppm, mixture 0.54 ppm + 1.0 ppm, read-out: % Efficacy
Protocol: as §1, §2
In this study, the response of soybean looper larvae to synergistic amounts of Bacillus thuringiensis subsp. kurstaki and cyantraniliprole was observed.
as §3

beet armyworm larvae = assay: leaf dip test, beet armyworm larvae; type: in vivo; conditions: Spodoptera exigua, foliar, Btk 0.54 ppm, cyantraniliprole 1.0 ppm, mixture 0.54 ppm + 1.0 ppm, read-out: % Efficacy
Protocol: as §1, §2
In this study, the response of beet armyworm larvae to synergistic amounts of Bacillus thuringiensis subsp. kurstaki and cyantraniliprole was observed.
as §3

cabbage looper larvae = assay: leaf dip test, cabbage looper larvae; type: in vivo; conditions: Trichoplusia ni, foliar, Btk 0.54 ppm, cyantraniliprole 0.50 ppm, mixture 0.54 ppm + 0.50 ppm, read-out: % Efficacy
Protocol: as §1, §2
In this study, the response of cabbage looper larvae to Bacillus thuringiensis subsp. kurstaki and cyantraniliprole was observed.
Bacillus thuringiensis subsp. kurstaki was applied at a concentration of 0.54 ppm (0.54 μg/ml). Cyantraniliprole was applied at a concentration of 0.50 ppm (0.50 μg/ml). […]

diamondback moth larvae = assay: leaf dip test, diamondback moth larvae; type: in vivo; conditions: Plutella xylostella, foliar, Btk 0.54 ppm, cyantraniliprole 0.1 ppm, mixture 0.54 ppm + 0.1 ppm, read-out: % Efficacy
Protocol: as §1
In this study, the response of diamondback moth larvae to synergistic amounts of Bacillus thuringiensis subsp. kurstaki (“Btk”) and cyantraniliprole was observed.
% Cexp=A+B−(AB/100), where % Cexp is the expected efficacy and “in which A and B are the control levels given by the single [insecticides]. […] Adopting a conservative approach, Applicant determined synergy to be present at ratios of ≥1.15. […]
In order to determine synergy, rates below normal field rate ranges must be used. If normal field rate ranges are used, all of the larvae would die (combining a lethal or near lethal dose of Bacillus thuringiensis subsp. kurstaki with a lethal dose of cyantraniliprole would most likely lead to larvae death) in every treatment and synergy would not be able to be determined. […]

CNC(=O)c1cc(C#N)cc(C)c1NC(=O)c1cc(Br)nn1-c1ncccc1Cl [Cyantraniliprole, 3-Bromo-1-(3-chloro-2-pyridinyl)-N-[4-cyano-2-methyl-6-(methylcarbamoyl)phenyl]-1H-pyrazole-5-carboxamide]
Emax at 1 ppm (sugarcane borer larvae; 24 h after treatment): 30% | Emax at 1 ppm (sugarcane borer larvae; 48 h after treatment): 32% | Emax at 10 ppm (corn earworm larvae; 24 h after treatment): 29% | Emax at 10 ppm (corn earworm larvae; 48 h after treatment): 33% | Emax at 0.1 ppm ([1]; 24 h after treatment): 23% | Emax at 0.1 ppm ([1]; 48 h after treatment): 39% | Emax at 1 ppm (soybean looper larvae; 24 h after treatment): 6% | Emax at 1 ppm (soybean looper larvae; 48 h after treatment): 10% | Emax at 1 ppm (beet armyworm larvae; 24 h after treatment): 20% | Emax at 1 ppm (beet armyworm larvae; 48 h after treatment): 37% | Emax at 0.5 ppm (cabbage looper larvae; 24 h after treatment): 15% | Emax at 0.5 ppm (cabbage looper larvae; 48 h after treatment): 51% | Emax at 0.1 ppm (diamondback moth larvae; 24 h after treatment): 16% | Emax at 0.1 ppm (diamondback moth larvae; 48 h after treatment): 47%
